Test results published in patent US20100249132A1, “IMIDAZOLE DERIVATIVES” (MERCK PATENT GESELLSCHAFT MIT BESCHRANKTER HAFTUNG, priority 2007, published 2010).

These compounds were tested against T1, recombinant autotaxin (Homo sapiens, UniProt Q13822) (assay: Autotaxin test (enzyme test), Amplex Red fluorescence). Conditions: substrate LPC 75 μM, Amplex Red detection, read-out: IC50 (autotaxin inhibition, enzyme test).
T1 construct: made in house; host or cells: Hi5 insect cells (baculovirus)
Format: biochemical
Experimental: Autotaxin Inhibition (Enzyme Test)
Autotaxin Test (Enzyme Test)
The autotaxin activity is measured indirectly using Amplex Red reagent. Amplex Red is measured here as fluorogenic indicator for the H2O2 formed. In detail, autotaxin converts the substrate lysophosphatidylcholine (LPC) into phosphocholine and lysophosphatidylic acid (LPA). After this reaction, the phosphocholine is reacted with alkaline phosphatase to give inorganic phosphate and choline. In the next step, choline is oxidised by choline oxidase to give betaine, with formation of H2O2. H2O2 reacts with Amplex Red reagent in the presence of peroxidase (horseradish peroxidase) in a 1:1 stoichiometry and forms the highly fluorescent resorufin. The fluorescence is measured in a reaction-dependent kinetic mode in order that fluorescent signals from possible other fluorescent substances which are not involved in the reaction can be corrected out.
1.5 μl of a standard solution or of the test substances (substances with the name A(n)) in individual concentrations dissolved in 20 mM Hepes pH 7.2 with a maximum of 7.7% of DMSO are pre-incubated together with 10 μl (16 ng) of highly purified recombinant autotaxin in a black microtitre plate provided with 384 wells at 22° C. for 30 min. The reaction is then initiated by addition of 5 μl of L-α-lysophosphatidylcholine (LPC), where the final concentration of LPC is 75 μM. The mixture is incubated at 37° C. for 90 min. After the incubation, Amplex Red reagent, peroxidase (horseradish peroxidase) and choline oxidase is added, and the fluorescence is immediately measured at 612 nm with excitation of 485 nm in a “Tecan Ultra multimode” reader. The activity of autotaxin is calculated indirectly via detection of the H2O2 formed. • Material: • Microtitre plate: PS microplate, 384 wells, small volume, black Corning, Cat #3677 • Protein: recombinant autotaxin (Baculovirale Hi5 Expression) • Substrate: L-α-lysophosphatidylcholine (chicken egg)); Avanti Polar Lipids #830071 P • Standard: C14 LPA, Avanti Polar Lipids, Cat #857120P • Detection reagent: Amplex Red reagent; Invitrogen #A12222; dissolved in 1.923 ml of DMSO peroxidase type VI-A (horseradish) from Sigma #P6782; dissolved in 7.45 ml of test buffer, choline oxidase; Sigma #C5896; dissolved in 2.47 ml of test buffer • Detection reagent mix: 1:100 dilution of Amplex Red reagent in test buffer • Test buffer: 200 mM Tris HCl, Merck, Cat #1.08219, pH 7.9, 0.1% of BSA, lipid-free, Roche Cat #775835

| Compound | IC50 |
| --- | --- |
| 5-[3-(4-Butylphenyl)ureido]-2-(5-cyclopropyl-carbamoylfuran-2-ylmethyl)-1H-imidazole-4-carboxamide [Compound A89] | > 10 µM |
| CCCCOc1ccc(NC(=O)Nc2[nH]c(Cc3ccc(C(=O)O)cc3)nc2C(N)=O)cc1 [Compound A9, 4-{5-[3-(4-Butoxyphenyl)ureido]-4-carbamoyl-1H-imidazol-2-ylmethyl}benzoic acid] | 1 to 10 µM |
| Cc1cccc(C)c1NC(=O)Nc1[nH]c(Cc2ccc(C(=O)O)cc2)nc1C(N)=O [Compound A16, 4-{4-Carbamoyl-5-[3-(2,6-dimethylphenyl)-ureido]-1H-imidazol-2-ylmethyl}benzoic acid] | > 10 µM |
| NC(=O)c1nc(Cc2ccc(C(=O)O)cc2)[nH]c1NC(=O)Nc1cc(C(F)(F)F)ccc1F [Compound A17, 4-{4-Carbamoyl-5-[3-(2-tluoro-5-trifluoromethyl-phenyl)ureido]-1H-imidazol-2-ylmethyl}benzoic acid] | > 10 µM |
| NC(=O)c1nc(-c2ccc(C(=O)O)cc2)[nH]c1NC(=O)Nc1ccc(C(F)(F)F)cc1 [Compound A18, 4-{4-Carbamoyl-5-[3-(4-trifluoromethylphenyl)-ureido]-1H-imidazol-2-yl}benzoic acid] | > 10 µM |
| CCc1ccc(NC(=O)Nc2[nH]c(-c3ccc(C(=O)O)cc3)nc2C(N)=O)cc1 [Compound A19, 4-{4-Carbamoyl-5-[3-(4-ethylphenyl)ureido]-1H-imidazol-2-yl}benzoic acid] | > 10 µM |
| NC(=O)c1nc(-c2ccc(CC(=O)O)cc2)[nH]c1NC(=O)Nc1ccc(C(F)(F)F)cc1 [Compound A20, (4-{4-Carbamoyl-5-[3-(4-trifluoromethylphenyl)-ureido]-1H-imidazol-2-yl}phenyl)acetic acid] | > 10 µM |
| NC(=O)c1nc(-c2ccc(CC(=O)O)cc2)[nH]c1NC(=O)Nc1cccc(Cl)c1 [Compound A21, (4-{4-Carbamoyl-5-[3-(3-chlorophenyl)ureido]-1H-imidazol-2-yl}phenyl)acetic acid] | > 10 µM |
| NC(=O)c1nc(-c2ccc(CC(=O)O)cc2)[nH]c1NC(=O)Nc1ccc(Cl)cc1 [Compound A22, (4-{4-Carbamoyl-5-[3-(4-chlorophenyl)ureido]-1H-imidazol-2-yl}phenyl)acetic acid] | > 10 µM |
| CC(C)c1ccc(NC(=O)Nc2[nH]c(-c3ccc(CC(=O)O)cc3)nc2C(N)=O)cc1 [Compound A23, (4-{4-Carbamoyl-5-[3-(4-isopropylphenyl)ureido]-1H-imidazol-2-yl}phenyl)acetic acid] | > 10 µM |
| Cc1ccc(NC(=O)Nc2[nH]c(-c3ccc(CC(=O)O)cc3)nc2C(N)=O)c(C)c1 [Compound A24, (4-{4-Carbamoyl-5-[3-(2,4-dimethylphenyl)-ureido]-1H-imidazol-2-yl}phenyl)acetic acid] | > 10 µM |
| Cc1cc(C)cc(NC(=O)Nc2[nH]c(-c3ccc(CC(=O)O)cc3)nc2C(N)=O)c1 [Compound A25, (4-{4-Carbamoyl-5-[3-(3,5-dimethylphenyl)-ureido]-1H-imidazol-2-yl}phenyl)acetic acid] | > 10 µM |
| Cc1cccc(C)c1NC(=O)Nc1[nH]c(Cc2ccc(C(=O)O)o2)nc1C(N)=O [Compound A26, 5-{4-Carbamoyl-5-[3-(2,6-dimethylphenyl)-ureido]-1H-imidazol-2-ylmethyl}furan-2-carboxylic acid] | > 10 µM |
| CCc1cccc(CC)c1NC(=O)Nc1[nH]c(Cc2ccc(C(=O)O)o2)nc1C(N)=O [Compound A28, 5-{4-Carbamoyl-5-[3-(2,6-diethylphenyl)ureido]-1H-imidazol-2-ylmethyl}furan-2-carboxylic acid] | > 10 µM |
| NC(=O)c1nc(Cc2ccc(C(=O)O)o2)[nH]c1NC(=O)Nc1ccc(Cl)c(C(F)(F)F)c1 [Compound A29, 5-{4-Carbamoyl-5-[3-(4-chloro-3-trifluoromethyl-phenyl)ureido]-1H-imidazol-2-ylmethyl}furan-2-carboxylic acid] | > 10 µM |

The remaining lines, values ahead:

| IC50 | Compound |
| --- | --- |
| 1 to 10 µM | CC(C)c1ccc(NC(=O)Nc2[nH]c(Cc3ccc(OCC(=O)O)cc3)nc2C(N)=O)cc1 [Compound A1, (4-{4-carbamoyl-5-[3-(4-isopropylphenyl)ureido]-1H-imidazol-2-ylmethyl}phenoxy)acetic acid] |
| 1 to 10 µM | CC(C)c1ccc(NC(=O)Nc2[nH]c(Cc3ccc(C(=O)O)cc3)nc2C(N)=O)cc1 [Compound A2, 4-{4-Carbamoyl-5-[3-(4-isopropylphenyl)ureido]-1H-imidazol-2-ylmethyl}benzoic acid] |
| > 10 µM | CCCCc1ccc(NC(=O)Nc2[nH]c(Cc3ccc(C(=O)O)cc3)nc2C(N)=O)cc1 [Compound A3, 4-{5-[3-(4-Butylphenyl)ureido]-4-carbamoyl-1H-imidazol-2-ylmethyl}benzoic acid] |
| > 10 µM | CCCCCCNC(=O)Nc1[nH]c(Cc2ccc(C(=O)O)cc2)nc1C(N)=O [Compound A4, 4-[4-Carbamoyl-5-(3-hexylureido)-1H-imidazol-2-ylmethyl]benzoic acid] |
| > 10 µM | Cc1ccc(NC(=O)Nc2[nH]c(Cc3ccc(C(=O)O)cc3)nc2C(N)=O)cc1 [Compound A5, 4-[4-Carbamoyl-5-(3-p-tolylureido)-1H-imidazol 2-ylmethyl]benzoic acid] |
| 1 to 10 µM | NC(=O)c1nc(Cc2ccc(C(=O)O)cc2)[nH]c1NC(=O)Nc1ccc(Cl)cc1 [Compound A6, 4-{4-Carbamoyl-5-[3-(4-chlorophenyl)ureido]-1H imidazol-2-ylmethyl}benzoic acid] |
| 1 to 10 µM | CCc1ccc(NC(=O)Nc2[nH]c(Cc3ccc(C(=O)O)cc3)nc2C(N)=O)cc1 [Compound A7, 4-{4-Carbamoyl-5-[3-(4-ethylphenyl)ureido]-1H imidazol-2-ylmethyl}benzoic acid] |
| 1 to 10 µM | Cc1c(Cl)cccc1NC(=O)Nc1[nH]c(Cc2ccc(C(=O)O)cc2)nc1C(N)=O [Compound A8, 4-{4-Carbamoyl-5-[3-(3-chloro-2-methylphenyl)-ureido]-1H-imidazol-2-ylmethyl}benzoic acid] |
| 1 to 10 µM | NC(=O)c1nc(Cc2ccc(C(=O)O)o2)[nH]c1NC(=O)Nc1ccc(C(F)(F)F)cc1 [Compound A10, 5-{4-Carbamoyl-5-[3-(4-trifluoromethylphenyl)-ureido]-1H-imidazol-2-ylmethyl}furan-2-carboxylic acid] |
| 1 to 10 µM | CCc1ccc(NC(=O)Nc2[nH]c(Cc3ccc(C(=O)O)o3)nc2C(N)=O)cc1 [Compound A11, 5-{4-Carbamoyl-5-[3-(4-ethylphenyl)ureido]-1H-imidazol-2-ylmethyl}furan-2-carboxylic acid] |
| 1 to 10 µM | CC(C)c1ccc(NC(=O)Nc2[nH]c(Cc3ccc(C(=O)O)o3)nc2C(N)=O)cc1 [Compound A12, 5-{4-Carbamoyl-5-[3-(4-isopropylphenyl)ureido]-1H-imidazol-2-ylmethyl}furan-2-carboxylic acid] |
| > 10 µM | Cc1c(Cl)cccc1NC(=O)Nc1[nH]c(Cc2ccc(C(=O)O)o2)nc1C(N)=O [Compound A13, 5-{4-Carbamoyl-5-[3-(3-chloro-2-methylphenyl)-ureido]-1H-imidazol-2-ylmethyl}furan-2-carboxylic acid] |
| > 10 µM | Cc1ccc(NC(=O)Nc2[nH]c(Cc3ccc(C(=O)O)o3)nc2C(N)=O)c(C)c1 [Compound A14, 5-{4-Carbamoyl-5-[3-(2,4-dimethylphenyl)-ureido]-1H-imidazol-2-ylmethyl}furan-2-carboxylic acid] |
| 1 to 10 µM | NC(=O)c1nc(Cc2ccc(C(=O)O)cc2)[nH]c1NC(=O)Nc1ccc(C(F)(F)F)cc1 [Compound A15, 4-{4-Carbamoyl-5-[3-(4-tritluoromethylphenyl)-ureido]-1H-imidazol-2-ylmethyl}benzoic acid] |
| 1 to 10 µM | NC(=O)c1nc(Cc2ccc(C(=O)O)o2)[nH]c1NC(=O)NCCc1ccccc1 [Compound A27, 5-[4-Carbamoyl-5-(3-phenethylureido)-1H-imidazol-2-ylmethyl]furan-2-carboxylic acid] |
| 1 to 10 µM | NC(=O)c1nc(Cc2ccc(C(=O)O)o2)[nH]c1NC(=O)Nc1ccc(Cl)cc1 [Compound A30, 5-{4-Carbamoyl-5-[3-(4-chlorophenyl)ureido]-1H-imidazol-2-ylmethyl}furan-2-carboxylic acid] |
| 1 to 10 µM | Cc1cc(C)c(NC(=O)Nc2[nH]c(Cc3ccc(C(=O)O)o3)nc2C(N)=O)c(C)c1 [Compound A31, 5-{4-Carbamoyl-5-[3-(2,4,6-trimethylphenyl)-ureido]-1H-imidazol-2-ylmethyl}furan-2-carboxylic acid] |
